Test results as given in US9255101B2 (BIOPROJECT, priority 2012, dated 2016).
Counter-ions that a name gives are not always drawn.

How the values were obtained:
human H4 receptor [1] = target: T1, human H4 receptor (Homo sapiens, UniProt Q9H3N8); experiment: biochemical
human H4 receptor [2] = target: T1, human H4 receptor; experiment: biochemical; remark: listed apart in the source
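Wherever IC50 is given: membranes from SH-SY5Y cells with stable human H4 receptor expression, incubated with GDP 10 µM, radioactivity retained on filters counted by liquid scintillation.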
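Wherever Ki is given: radioligand displacement of a [3H]-labelled ligand from membranes of CHO cells stably expressing human H4 receptor, bound radioactivity counted on filters by liquid scintillation.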

T1 sequence (Q9H3N8 whole entry): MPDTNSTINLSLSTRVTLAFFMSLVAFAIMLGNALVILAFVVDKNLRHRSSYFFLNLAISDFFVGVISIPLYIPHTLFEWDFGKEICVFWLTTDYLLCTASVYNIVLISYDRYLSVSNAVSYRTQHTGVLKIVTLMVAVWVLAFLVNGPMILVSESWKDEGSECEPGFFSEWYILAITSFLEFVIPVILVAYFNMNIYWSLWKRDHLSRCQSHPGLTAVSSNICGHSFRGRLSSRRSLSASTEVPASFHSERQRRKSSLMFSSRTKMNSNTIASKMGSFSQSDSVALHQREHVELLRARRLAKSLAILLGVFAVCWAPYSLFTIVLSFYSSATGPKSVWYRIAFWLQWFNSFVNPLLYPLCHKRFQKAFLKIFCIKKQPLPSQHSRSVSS

| Compound | melting point [°C] | Ki (human H4 receptor [1]) [nM] | IC50 (human H4 receptor [2]) [nM] |
| --- | --- | --- | --- |
| Cc1c(-c2ccc(Cl)cc2)nc2n1CCc1ccccc1C2OC1CCN(C)CC1 (centres unmarked) [Example 155, 2-(4-chlorophenyl)-1-methyl-4-(1-methylpiperidin-4-yloxy)-9,10-dihydro-4H-3,10a-diaza-benzo[f]azulene] | 158 | < 30 | – |
| C=C(C)Cc1nc2n(c1CC(=C)C)CCc1ccccc1C2OC1CCN(C)CC1.O=C(O)C(=O)O.O=C(O)C(=O)O (centres unmarked) [Example 267, 1,2-bis-(2-methylallyl)-4-(1-methylpiperidin-4-yloxy)-9,10-dihydro-4H-3,10a-diaza-benzo[f]azulene dioxalate] | 70 | < 300 | – |
| CN1CCC(OC2c3ccccc3CCn3c2nc(CCCCCc2ccccc2)c3Cl)CC1 (centres unmarked) [Example 139, 1-chloro-4-(1-methylpiperidin-4-yloxy)-2-(5-phenylpentyl)-9,10-dihydro-4H-3,10a-diaza-benzo[f]azulene oxalate] | – | < 30 | < 30 |
| CN1CCC(OC2c3ccccc3CCn3cc(-c4ccc(OC(F)(F)F)cc4)nc32)CC1 (centres unmarked) [Example 15, 4-(1-methylpiperidin-4-yloxy)-2-(4-trifluoromethoxyphenyl)-9,10-dihydro-4H-3,10a-diaza-benzo[f]azulene oxalate] | – | < 30 | < 30 |
| CN1CCC(OC2c3ccccc3CCn3cc(C4=CCCCC4)nc32)CC1 (centres unmarked) [Example 62, 2-cyclohex-1-enyl-4-(1-methylpiperidin-4-yloxy)-9,10-dihydro-4H-3,10a-diaza-benzo[f]azulene oxalate] | – | < 300 | < 300 |
| CN1CCC(OC2c3ccccc3CCn3cc(CCCC4CCCC4)nc32)CC1 (centres unmarked) [Example 105, 2-(3-cyclopentylpropyl)-4-(1-methylpiperidin-4-yloxy)-9,10-dihydro-4H-3,10a-diaza-benzo[f]azulene] | – | < 30 | < 30 |
| CN1CCC(OC2c3ccccc3CCn3cc(CCCCCc4ccccc4)nc32)CC1 (centres unmarked) [Example 90, 4-(1-methylpiperidin-4-yloxy)-2-(5-phenylpentyl)-9,10-dihydro-4H-3,10a-diaza-benzo[f]azulene oxalate] | – | < 30 | < 30 |
| CN1CCC(OC2c3ccccc3CCn3cc(-c4cccc(Cl)c4)nc32)CC1 (centres unmarked) [Example 77, 2-(3-chlorophenyl)-4-(1-methylpiperidin-4-yloxy)-9,10-dihydro-4H-3,10a-diaza-benzo[f]azulene oxalate] | – | < 30 | < 300 |
| CCCc1ccc(-c2cn3c(n2)C(OC2CCN(C)CC2)c2ccccc2CC3)cc1 (centres unmarked) [Example 22, 4-(1-methylpiperidin-4-yloxy)-2-(4-propylphenyl)-9,10-dihydro-4H-3,10a-diaza-benzo[f]azulene] | – | < 30 | < 300 |
| CC(=O)NCCSc1ccc(-c2nc3n(c2C)CCc2ccccc2C3OC2CCN(C)CC2)cc1 (centres unmarked) [Example 163, N-(2-{4-[1-methyl-4-(1-methylpiperidin-4-yloxy)-9,10-dihydro-4H-3,10a-diaza-benzo[f]azulen-2-yl]-phenylsulfanyl}-ethyl)-acetamide oxalate] | – | < 30 | < 30 |
| Cc1c(C(=O)NCc2ccccc2)nc2n1CCc1ccccc1C2OC1CCN(C)CC1 (centres unmarked) [Example 222, 1-methyl-4-(1-methylpiperidin-4-yloxy)-9,10-dihydro-4H-3,10a-diaza-benzo[f]azulene-2-carboxylic acid benzylamide] | 161 | – | – |
| Cc1c(-c2ccccc2)nc2n1CCc1ccccc1C2OC1CCN(C)CC1 (centres unmarked) [Example 103, 1-Methyl-4-(1-methyl-piperidin-4-yloxy)-2-phenyl-9,10-dihydro-4H-3,10a-diaza-benzo[f]azulene] | – | < 30 | < 30 |
| CN1CCC(OC2c3ccccc3CCn3c2nc(-c2ccccc2)c3C(N)=O)CC1 (centres unmarked) [Example 254, 4-(1-methylpiperidin-4-yloxy)-2-phenyl-9,10-dihydro-4H-3,10a-diaza-benzo[f]azulene-1-carboxylic acid amide] | – | < 300 | < 300 |
| CN1CCC(OC2c3cccc(Br)c3CCn3cc(I)nc32)CC1 (centres unmarked) [Example 79, 8-bromo-2-iodo-4-(1-methylpiperidin-4-yloxy)-9,10-dihydro-4H-3,10a-diaza-benzo[f]azulene] | – | < 300 | < 1000 |
| CN1CCC(OC2c3ccccc3CCn3cc(C4=CCCCCC4)nc32)CC1 (centres unmarked) [Example 80, 2-cyclohept-1-enyl-4-(1-methylpiperidin-4-yloxy)-9,10-dihydro-4H-3,10a-diaza-benzo[f]azulene] | – | < 30 | < 300 |
| CN1CCC(OC2c3ccccc3CCn3cc(C=CCc4ccccc4)nc32)CC1 (centres unmarked) [Example 76, 4-(1-methylpiperidin-4-yloxy)-2-(3-phenylpropenyl)-9,10-dihydro-4H-3,10a-diaza-benzo[f]azulene oxalate] | – | < 30 | < 300 |
| CN1CCC(OC2c3ccccc3CCn3cc(CCCc4ccccc4)nc32)CC1 (centres unmarked) [Example 87, 4-(1-methylpiperidin-4-yloxy)-2-(3-phenylpropyl)-9,10-dihydro-4H-3,10a-diaza-benzo[f]azulene oxalate] | – | < 30 | < 30 |

| Compound | melting point [°C] | Ki (human H4 receptor [1]) [nM] | IC50 (human H4 receptor [2]) [nM] |
| --- | --- | --- | --- |
| Cc1c(-c2ccc(SCc3ccco3)cc2)nc2n1CCc1ccccc1C2OC1CCN(C)CC1 (centres unmarked) [Example 167, 2-[4-(furan-2-ylmethylsulfanyl)-phenyl]-1-methyl-4-(1-methylpiperidin-4-yloxy)-9,10-dihydro-4H-3,10a-diaza-benzo[f]azulene oxalate] | – | < 30 | < 30 |
| CN1CCC(OC2c3ccccc3CCn3cc(-c4ccccc4F)nc32)CC1 (centres unmarked) [Example 27, 2-(2-fluorophenyl)-4-(1-methylpiperidin-4-yloxy)-9,10-dihydro-4H-3,10a-diaza-benzo[f]azulene] | – | < 300 | < 300 |
| CN1CCC(OC2c3ccccc3CCn3cc(C4=CCCC4)nc32)CC1 (centres unmarked) [Example 65, 2-cyclopent-1-enyl-4-(1-methylpiperidin-4-yloxy)-9,10-dihydro-4H-3,10a-diaza-benzo[f]azulene] | – | < 300 | < 1000 |
| CC(C)c1ccc(-c2cn3c(n2)C(OC2CCN(C)CC2)c2ccccc2CC3)cc1 (centres unmarked) [Example 32, 2-(4-isopropylphenyl)-4-(1-methyl-piperidin-4-yloxy)-9,10-dihydro-4H-3,10a-diaza-benzo[f]azulene oxalate] | – | < 300 | < 300 |
| CN1CCC(OC2c3ccccc3CCn3cc(C=CCOc4ccccc4)nc32)CC1 (centres unmarked) [Example 121, 4-(1-methylpiperidin-4-yloxy)-2-(3-phenoxypropenyl)-9,10-dihydro-4H-3,10a-diaza-benzo[f]azulene] | – | < 30 | < 30 |
| Cc1c(-c2ccc(N3CCN(C(C)(C)C)C3=O)cc2)nc2n1CCc1ccccc1C2OC1CCN(C)CC1 (centres unmarked) [Example 140, 1-tert-butyl-3-{4-[1-methyl-4-(1-methylpiperidin-4-yloxy)-9,10-dihydro-4H-3,10a-diaza-benzo[f]azulen-2-yl]-phenyl}-imidazolidin-2-one] | – | < 30 | < 300 |
| CN1CCC(OC2c3ccccc3CCn3cc(-c4ccc(CN5CCCCCC5=O)cc4)nc32)CC1 (centres unmarked) [Example 188, 1-{4-[4-(1-methylpiperidin-4-yloxy)-9,10-dihydro-4H-3,10a-diaza-benzo[f]azulen-2-yl]benzyl}-azepan-2-one] | – | < 300 | < 300 |
| CN1CCC(OC2c3ccccc3CCn3cc(-c4ccc(N(C)C(=O)OC(C)(C)C)cc4)nc32)CC1 (centres unmarked) [Example 97, methyl-{4-[4-(1-methylpiperidin-4-yloxy)-9,10-dihydro-4H-3,10a-diaza-benzo[f]azulen-2-yl]-phenyl}-carbamic acid tert-butyl ester oxalate] | – | < 30 | < 30 |
| CCCCCCc1ccc(-c2cn3c(n2)C(OC2CCN(C)CC2)c2ccccc2CC3)cc1 (centres unmarked) [Example 43, 2-(4-hexylphenyl)-4-(1-methylpiperidin-4-yloxy)-9,10-dihydro-4H-3,10a-diaza-benzo[f]azulene] | – | < 300 | < 300 |
| CSc1ccc(-c2cn3c(n2)C(OC2CCN(C)CC2)c2ccccc2CC3)cc1 (centres unmarked) [Example 20, 4-(1-methylpiperidin-4-yloxy)-2-(4-methylsulfanylphenyl)-9,10-dihydro-4H-3,10a-diaza-benzo[f]azulene] | – | < 30 | < 30 |
| Cc1c(-c2ccc(C=CS(C)(=O)=O)cc2)nc2n1CCc1ccccc1C2OC1CCN(C)CC1 (centres unmarked) [Example 158, 2-[4-(2-methanesulfonyl-vinyl)-phenyl]-1-methyl-4-(1-methylpiperidin-4-yloxy)-9,10-dihydro-4H-3,10a-diaza-benzo[f]azulene] | – | < 30 | < 30 |
| CN1CCC(OC2c3ccccc3CCn3c2nc(-c2ccccc2)c3C(F)(F)F)CC1 (centres unmarked) [Example 255, 4-(1-methylpiperidin-4-yloxy)-2-phenyl-1-trifluoromethyl-9,10-dihydro-4H-3,10a-diaza-benzo[f]azulene] | – | < 30 | < 300 |
| C=C(C)Cc1cn2c(n1)C(OC1CCN(C)CC1)c1ccccc1CC2 (centres unmarked) [Example 70, 2-(2-methyl-allyl)-4-(1-methylpiperidin-4-yloxy)-9,10-dihydro-4H-3,10a-diaza-benzo[f]azulene oxalate] | – | < 300 | < 300 |
| CN1CCC(OC2c3ccccc3CCn3cc(SCc4ccccc4)nc32)CC1 (centres unmarked) [Example 67, 2-benzylsulfanyl-4-(1-methylpiperidin-4-yloxy)-9,10-dihydro-4H-3,10a-diaza-benzo[f]azulene oxalate] | – | < 300 | < 300 |
| Cc1c(-c2ccc(N(C)C(=O)OC(C)(C)C)cc2)nc2n1CCc1ccccc1C2OC1CCN(C)CC1 (centres unmarked) [Example 125, methyl-{4-[1-methyl-4-(1-methylpiperidin-4-yloxy)-9,10-dihydro-4H-3,10a-diaza-benzo[f]azulen-2-yl]-phenyl}carbamic acid tert-butyl ester] | – | < 30 | < 30 |
| CN1CCC(OC2c3ccccc3CCn3cc(-c4ccc(C(C)(F)F)cc4)nc32)CC1 (centres unmarked) [Example 64, 2-[4-(1,1-difluoroethyl)-phenyl]-4-(1-methylpiperidin-4-yloxy)-9,10-dihydro-4H-3,10a-diaza-benzo[f]azulene oxalate] | – | < 300 | < 30 |
